“And” between values parts separate entries of the source, which are not always exact repeats. Equal values may be shown once. Read-outs that look alike come from different tables or passages of the source.
Legend:
[1] = Human liver microsomes stability; type: in vitro ADME; conditions: Human liver microsomes; for half-life at 2 μM / microsomal CLint at 2 μM: 2 μM compound, 0.5 mg/mL microsomes, 1 mM NADPH; for half-life at 2 μM: 37° C; for microsomal CLint at 2 μM: read-out: CLint (μL/min/mg protein); for CLint scaled at 2 μM: read-out: Scaled-up CLint
Procedure, shortened: (§1)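 Microsomes in phosphate buffer with MgCl2 were pre-warmed for 5 min at 37° C and 1 mM NADPH was added. Reactions began with 2 μM compound, and aliquots were stopped with cold methanol at five times up to 60 min. Remaining parent by LC-MS/MS gave the half-life and CLint.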

[2] = Rat liver microsomes stability; type: in vitro ADME; conditions: Rat liver microsomes; for microsomal CLint at 2 μM / half-life at 2 μM / CLint scaled at 2 μM: male; for microsomal CLint at 2 μM: rat, liver microsomes, read-out: CLint (μL/min/mg protein); for microsomal CLint at 2 μM / half-life at 2 μM: 2 μM compound, 0.5 mg/mL microsomes, 1 mM NADPH; for half-life at 2 μM: 37° C; for CLint scaled at 2 μM: read-out: Scaled-up CLint
Procedure, shortened: as §1

[3] = Pharmacokinetic studies in rat (i.v.); type: in vivo; conditions: rat plasma; for Apparent t1/2 / half-life: estimated from 2 points only; for half-life: read-out: Apparent t1/2 (converted); for AUC(0-t): read-out: AUC0-tlast
Procedure, shortened: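 Male Sprague-Dawley rats (~225-350 g) received compounds intravenously via tail vein in 5% Tween-80 in saline. Saphenous blood was sampled at 0.25, 1 and 4 h and analysed by LC-MS/MS. t1/2 and AUC0-tlast came from non-compartmental analysis using the linear up/log down trapezoidal rule.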

[4] = Mouse liver microsomes stability; type: in vitro ADME; conditions: Mouse liver microsomes; for microsomal CLint at 2 μM / half-life at 2 μM / CLint scaled at 2 μM: male; for microsomal CLint at 2 μM: mouse, liver microsomes, read-out: CLint (μL/min/mg protein); for microsomal CLint at 2 μM / half-life at 2 μM: 2 μM compound, 0.5 mg/mL microsomes, 1 mM NADPH; for half-life at 2 μM: 37° C; for CLint scaled at 2 μM: read-out: Scaled-up CLint
[5] = I-1 1.10 mg/kg i.v., individual rats R04-R06, 1.1 mg/kg
[6] = male, Sprague-Dawley, rat, plasma, iv, 1.1 mg/kg, I-1 1.10 mg/kg i.v., Mean ± SD
[7] = male, Sprague-Dawley, rat, plasma, iv, 1.1 mg/kg, I-1 1.10 mg/kg i.v., individual rats R04-R06
[8] = I-13 1.14 mg/kg i.v., individual rats R04-R06, 1.14 mg/kg
[9] = male, Sprague-Dawley, rat, plasma, iv, 1.14 mg/kg, I-13 1.14 mg/kg i.v., individual rats R04-R06

[2H]C([2H])([2H])N(CCc1c[nH]c2ccc(SC)cc12)C([2H])([2H])[2H] [Compound I-1, N,N-Bis(methyl-d3)-2-(5-(methylthio)-1H-indol-3-yl)ethan-1-amine]
Predicted hepatic CL [1]: 19.31 mL/min/kg
half-life at 2 μM [1]: 6.04 min
microsomal CLint at 2 μM [1]: 230 µL/min/mg
CLint scaled at 2 μM [1]: 288 mL/min/kg
Predicted hepatic CL [2]: >50.17 mL/min/kg
microsomal CLint at 2 μM [2]: > 307 µL/min/mg
half-life at 2 μM [2]: < 4.51 min
CLint scaled at 2 μM [2]: > 550 mL/min/kg
Plasma concentration ([3]; I-1 1.10 mg/kg i.v., 0.25 h, individual rats R04-R06, 1.1 mg/kg): 15.7 ng/mL and 16.9 ng/mL
Plasma concentration ([3]; I-1 1.10 mg/kg i.v., 1 h, individual rats R04-R06, 1.1 mg/kg): 0.835 ng/mL and 0.354 ng/mL and 0.298 ng/mL
Plasma concentration (ng/mL) ([3]; I-1 1.10 mg/kg i.v., 4 h, individual rats R04-R06): BLQ (BLQ denotes below the lower limit of quantitation (0.5 ng/mL))
AUC0-tlast [3, 5]: 10.9 ng·h/mL and 12.0 ng·h/mL
Apparent t1/2 [3, 5]: 8.22 min and 7.74 min
concentration at 0.25 h ([3]; male, Sprague-Dawley, rat, plasma, iv, 1.1 mg/kg, I-1 1.10 mg/kg i.v., 0.25 h, Mean ± SD, read-out: Plasma concentration): 16.4 ± 0.624 ng/mL
concentration at 0.25 h ([3]; male, Sprague-Dawley, rat, plasma, iv, 1.1 mg/kg, I-1 1.10 mg/kg i.v., 0.25 h, individual rats R04-R06, read-out: Plasma concentration): 16.6 ng/mL
concentration at 1 h ([3]; male, Sprague-Dawley, rat, plasma, iv, 1.1 mg/kg, I-1 1.10 mg/kg i.v., 1 h, Mean ± SD, read-out: Plasma concentration): 0.496 ± 0.295 ng/mL
half-life [3, 6]: 8.82 ± 1.44 min
AUC(0-t) [3, 6]: 11.3 ± 0.587 ng·h/mL
half-life [3, 7]: 10.4 min
AUC(0-t) [3, 7]: 11.1 ng·h/mL
Predicted hepatic CL [4]: 81.96 mL/min/kg
microsomal CLint at 2 μM [4]: 210 µL/min/mg
half-life at 2 μM [4]: 6.61 min
CLint scaled at 2 μM [4]: 918 mL/min/kg

CCN(C)CCc1c[nH]c2ccc(SC)cc12 [Compound I-13, N-Ethyl-N-methyl-2-(5-(methylthio)-1H-indol-3-yl)ethan-1-amine]
Predicted hepatic CL [1]: 18.16 mL/min/kg
half-life at 2 μM [1]: 11.7 min
microsomal CLint at 2 μM [1]: 118 µL/min/mg
CLint scaled at 2 μM [1]: 148 mL/min/kg
Predicted hepatic CL [2]: 42.35 mL/min/kg
microsomal CLint at 2 μM [2]: 102 µL/min/mg
half-life at 2 μM [2]: 13.7 min
CLint scaled at 2 μM [2]: 182 mL/min/kg
Plasma concentration ([3]; I-13 1.14 mg/kg i.v., 0.25 h, individual rats R04-R06, 1.14 mg/kg): 45.7 ng/mL and 86.5 ng/mL and 113 ng/mL
Plasma concentration ([3]; I-13 1.14 mg/kg i.v., 1 h, individual rats R04-R06, 1.14 mg/kg): 46.7 ng/mL and 29.7 ng/mL
Plasma concentration ([3]; I-13 1.14 mg/kg i.v., 4 h, individual rats R04-R06, 1.14 mg/kg): 3.51 ng/mL and 1.11 ng/mL and 0.449 ng/mL
AUC0-tlast [3, 8]: 109 ng·h/mL and 103 ng·h/mL
Apparent t1/2 [3, 8]: 28.6 min
concentration at 0.25 h ([3]; male, Sprague-Dawley, rat, plasma, iv, 1.14 mg/kg, I-13 1.14 mg/kg i.v., 0.25 h, Mean ± SD, read-out: Plasma concentration): 81.7 ± 33.9 ng/mL
concentration at 1 h ([3]; male, Sprague-Dawley, rat, plasma, iv, 1.14 mg/kg, I-13 1.14 mg/kg i.v., 1 h, Mean ± SD, read-out: Plasma concentration): 42.9 ± 11.7 ng/mL
concentration at 1 h ([3]; male, Sprague-Dawley, rat, plasma, iv, 1.14 mg/kg, I-13 1.14 mg/kg i.v., 1 h, individual rats R04-R06, read-out: Plasma concentration): 52.2 ng/mL
concentration at 4 h ([3]; male, Sprague-Dawley, rat, plasma, iv, 1.14 mg/kg, I-13 1.14 mg/kg i.v., 4 h, Mean ± SD, read-out: Plasma concentration): 1.69 ± 1.61 ng/mL
AUC(0-t) ([3]; male, Sprague-Dawley, rat, plasma, iv, 1.14 mg/kg, I-13 1.14 mg/kg i.v., Mean ± SD): 105 ± 3.64 ng·h/mL
half-life [3, 9]: 35.1 min
AUC(0-t) [3, 9]: 102 ng·h/mL
half-life ([3]; male, Sprague-Dawley, rat, plasma, iv, 1.14 mg/kg, I-13 1.14 mg/kg i.v., mean (n = 2)): 31.9 min
Predicted hepatic CL [4]: >84.35 mL/min/kg
microsomal CLint at 2 μM [4]: > 307 µL/min/mg
half-life at 2 μM [4]: < 4.51 min
CLint scaled at 2 μM [4]: > 1340 mL/min/kg

From patent publication US20250257034A1, “INDOLE DERIVATIVES AS SEROTONERGIC AGENTS USEFUL FOR THE TREATMENT OF DISORDERS RELATED THERETO” (priority 2023, published 2025)
